Test results from publication PMC7822874, “Chemoprotective antimalarials identified through quantitative high-throughput screening of Plasmodium blood and liver stage parasites” (Scientific Reports, 2021).

test system: Plasmodium falciparum Dd2 asexual blood stage parasites; assay: microbe, parasite or virus in culture; set-up: species or system Plasmodium falciparum Dd2 in human erythrocytes; single determination (one 11-point concentration-response curve); details: Plasmodium falciparum, DD2, Erythrocyte, 72 h; read-out: AC50

SMILES	AC50 [µM]
NC(Cc1ccccc1)C(=O)N1CCC2(CC1)CN(C(=O)c1ccc(Cl)cc1)CCO2 (stereo not shown) [NCGC00378158-01]	0.841
COc1cc(C(=O)NC2CCN(c3cc(-c4ccccc4)n[nH]3)CC2)cc(OC)c1OC [NCGC00436906-01]	5.96
Cc1nn(-c2ccccc2)c2c1C(O)n1c(nc3ccccc31)S2 (stereo not shown) [MLS000081954-01]	5.31
Fc1ccc(OC2CN(CC3CCCCC3)C2)cc1F [NCGC00476687-01]	17.2
CCOC(=O)c1sc(NC(=O)C2c3ccccc3Oc3ccccc32)c(C(=O)OCC)c1C [NCGC00100913-01]	2.66
OC(CNCc1cccc(Br)c1)c1ccccc1 (stereo not shown) [MLS000676112-01]	5.96
CCOC(=O)c1cc(-c2ccc(OC)cc2)n(CCC(=O)Nc2cccc(C(C)=O)c2)c1C [NCGC00140940-01]	0.211
COc1ccccc1C(=O)N1CCC2(CC1)OC(=O)N(CCOc1ccccc1)C2(C)c1cccnc1 (stereo not shown) [NCGC00415508-01]	9.44
COc1ccccc1CN1CCn2c(nn(-c3ccc([N+](=O)[O-])cc3)c2=O)C1 [NCGC00479607-01]	5.96
CC1(c2ccccc2)N(Cc2ccc(O)cc2)C(=O)OC12CCN(Cc1c[nH]c3ccccc13)CC2 (stereo not shown) [NCGC00415668-01]	5.31
CC1CCN(CC2CCCCCN2C(=O)NCc2ccc(F)cc2)CC1 (stereo not shown) [NCGC00456722-01]	13.3
Cc1ccccc1N(C)C1CN(Cc2ccc(C#N)cc2)C1 [NCGC00476680-01]	3.85
CCN(Cc1ccccc1)Cc1c(O)ccc2oc(C)c(C(=O)Nc3ccccc3C)c12 [NCGC00115715-01]	4.73
CCCCN1C(=O)C(O)(CC(=O)c2ccc(C(C)(C)C)cc2)c2ccccc21 (stereo not shown) [NCGC00100209-01]	4.73
Cc1nc(-c2ccco2)cc([C@H]2CN3CC[C@H]2C[C@@H]3CNCc2ccccc2)n1 [NCGC00401513-01]	4.33
O=C1N=C(NC2CCCC2)C2(CCN(Cc3ccc(F)cc3)C2)N1c1cc(F)cc(F)c1 (stereo not shown) [NCGC00374305-01]	10.6
CC(C)NC(=O)OC[C@H]1C[C@@H]2CCN1C[C@@H]2c1cc(-c2ccc(F)cc2)nn1C [NCGC00399718-01]	13.7
COc1ccccc1N1CCN(C(=O)C2CCCN(S(=O)(=O)c3ccc4c(c3)oc(=O)n4C)C2)CC1 (stereo not shown) [NCGC00140732-01]	5.96
CN1CCC2(CC1)CN(C(=O)CCc1ccccc1)Cc1ccccc1O2 [NCGC00456463-01]	6.68
COc1ccccc1NC(=O)CSc1nc2c(oc3ccccc32)c(=O)n1-c1ccc(C)cc1 [NCGC00112704-01]	15
COc1cncc(CN2CCC3(CC2)OC(=O)N(Cc2ccc(O)cc2)C3(C)c2ccccc2)c1 (stereo not shown) [NCGC00415566-01]	9.44
COCc1ccc2c(c1)c(OC(C)(C)C(=O)N1CCN(CCO)CC1)nn2Cc1ccccc1 [NCGC00419658-01]	9.44
c1ccc(-c2ccc3ncc(Nc4cccnc4)n3n2)cc1 [NCGC00412518-01]	4.85
CCCCN(CCCC)CC(O)Cn1cc(/C=C/C(=O)c2ccccc2)c2ccccc21 (stereo not shown) [NCGC00114887-01]	1.68
COCCNc1cc(N2CCN(C3CCCCC3)CC2)c2noc3c2c1C(=O)c1ccccc1-3 [NCGC00111067-01]	15
COc1cccc(NC(=O)c2ccc(-c3nnc4ccc(NC(=O)C5CCC5)cn34)cc2)c1 [NCGC00429881-01]	3.76
O=C(c1ccccc1)N1CCC(Cc2nnc(-c3ccncc3)[nH]2)CC1 [NCGC00458326-01]	15

SMILES	AC50 [µM]
CC[C@H]1C[N@@]2CC[C@H]1C[C@@H]2CNCc1ccc(SC)cc1 [NCGC00392466-01]	4.33
COCC1CN(Cc2cc(F)cc(Br)c2)CC12CCNCC2 (stereo not shown) [NCGC00461842-01]	9.44
COCc1ccc2c(c1)c(OC(C)(C)C(=O)N1CCOCC1)nn2Cc1cccc(OC)c1 [NCGC00419580-01]	8.41
COc1ccc(CN2C(=O)C(C)N(C(=O)c3c(F)cccc3F)c3ccccc32)cc1 (stereo not shown) [MLS001166304-01]	7.5
CCn1c(=O)c(=O)n(CC)c2cc(N3CCCCC3)c(NC(=O)c3ccc(Cl)cc3)cc21 [NCGC00107440-01]	7.5
COc1ccc2cc1Nc1ccc(cc1)C[C@H](NC(=O)c1cccnc1)C(=O)N(C)[C@@H](C(=O)NCCOc1ccccc1)C2 [NCGC00410281-01]	4.22
COc1cc(NC(=O)CSc2nc(-c3ccc(C(C)C)cc3)no2)cc(OC)c1 [NCGC00127914-01]	0.841
CC(C)c1ccccc1NC(=O)Cn1cccc1-c1nc(-c2ccccc2)no1 [NCGC00445236-01]	4.22
COc1cccc(C(=O)N2CCC(N3C[C@H](O)C[C@H]3C(=O)N3CC=C(c4ccccc4)CC3)CC2)c1 [NCGC00460071-01]	9.44
Cn1cc(CN2CCCC(CO)(Cc3ccccc3)C2)cn1 (stereo not shown) [MLS000732297-01]	5.96
COc1ccccc1C(=O)N1CCC2(CC1)c1nccn1-c1ccccc1CN2CC(C)C [NCGC00442752-01]	11.9
CCN1CCN(c2cc(C)c3cc(NC(=O)c4ccc(Br)o4)ccc3n2)CC1 [MLS000878990-01]	6.68
COc1ccccc1NC(=O)CN1CCN(C2c3ccccc3-c3ccccc32)CC1 [MLS000047428-01]	15
Cc1ccc(O)c(CN2CCCC(c3nc(CC(C)C)no3)C2)c1 (stereo not shown) [NCGC00443337-01]	9.44
CCn1cc(CN2CCCC23CCN(c2cc(C)nc4ccccc24)CC3)c(C)n1 [NCGC00442249-01]	4.22
O=C1NC2(CCN(C(=O)c3ccc(C(F)(F)F)cc3)CC2)COc2ccccc21 [NCGC00477468-01]	8.41
COc1ccc(Nc2cc(C)c3cc(NC(=O)c4cc(OC)cc(OC)c4)ccc3n2)cc1 [NCGC00124306-01]	0.75
CC1CCN(c2nc3c([S+](=O)([O-])c4ccccc4)nnn3c3ccc(Cl)cc23)CC1 [NCGC00112222-01]	2.66
Cc1ccccc1N(C(=O)c1snc(C(N)=O)c1N)C(C(=O)NCC1CCCO1)c1ccc(N(C)C)cc1 (stereo not shown) [MLS001218424-01]	7.5
COc1ccccc1NC(=O)N1CC(=O)Nc2sc3c(c2C1c1ccccc1)CCCC3 (stereo not shown) [NCGC00120109-01]	15
O=C1C=C(c2cccc(CO)c2)C[C@@H](c2ccc(Cl)cc2)C1 [MLS002302575-01]	3.76
COc1ccc(-c2cc(=O)c3cc(C)ccc3[nH]2)cc1 [MLS000517811-01]	10.6
COc1cccc(-c2cc(C(=O)Nc3cc(Cl)ccc3O)on2)c1 [NCGC00121773-01]	4.73
O=C(c1ccc(-c2ncc3cnc(-c4ccccc4)cn23)cc1)N1CCc2cccnc21 [NCGC00413975-01]	17.2
Cc1ccc(-n2ncc3c(NCc4ccco4)ncnc32)cc1C [MLS000622044-01]	15
Cc1nc(CN2C(=O)OC3(CCN(C(=O)c4ccc(Oc5ccccc5)cc4)CC3)C2(C)c2ccccc2)cs1 (stereo not shown) [NCGC00415614-01]	13.3
Cc1ccc(C2Cn3nnc(-c4noc(-c5n[nH]c6c5CCCC6)n4)c3CO2)cc1 (stereo not shown) [NCGC00454353-01]	13.3

SMILES	AC50 [µM]
CC(C)c1ccc(C2c3[nH]c4ccccc4c3C[C@H]3C(=O)N(c4ccccc4C(=O)N4CCC(C(=O)O)CC4)C(=O)N23)cc1 (stereo partly shown) [MLS001140664-01]	6.68
COc1ccc(-n2nc3ccc(NC(=O)c4ccc(-c5cc(Cl)ccc5Cl)o4)cc3n2)cc1 [NCGC00098498-01]	4.22
CCN1CCN(Cc2ccc(NC(=O)c3cc(NC(=O)C4=NN(c5ccccc5)C(=O)C4)cc(OC)c3)cc2C(F)(F)F)CC1 [MLS000911574-01]	8.41
COC(=O)c1cnn(-c2ccc(C(=O)Nc3ccc(OC(F)(F)F)cc3)cc2)c1N [NCGC00137710-01]	4.73
CCCCn1c(NS(=O)(=O)c2ccccc2)c(C(=O)OCC)c2nc3ccccc3nc21 [MLS000589117-01]	10.6
CCOC(=O)C1CCN(C(=O)c2cc3c(n2C)CCN(Cc2ccccc2)C3)CC1 [NCGC00430564-01]	10.6
COc1ccc(C2=[N+](C)CCn3cccc32)c(OC)c1 [MLS000705896-01]	10.6
O=C(NCCC1=CCCCC1)c1ccc2c(=O)n3nc(Nc4ccccc4)sc3nc2c1 [NCGC00138829-01]	4.73
CC(C)CNC(=O)CN1CN(c2ccccc2)C2(CCN(C(=O)NC3CCCCC3)CC2)C1=O [NCGC00473208-01]	15
CCC(=O)Nc1ccc2nnc(-c3ccc(C(=O)Nc4ccc5c(c4)OCCO5)cc3)n2c1 [NCGC00429833-01]	7.5
CC12CC3CC(C)(C1)CC(Nc1nc(N4CCOCC4)nc4ccccc14)(C3)C2 [MLS000332322-01]	9.44
CN1CC2(CCCN(CC3CC3)C2)c2cc(C(=O)NCCOc3ccccc3)ccc21 (stereo not shown) [NCGC00419362-01]	17.2
Cc1cccc(Oc2nc(-c3ccncc3)nc3ccccc23)c1 [MLS000769517-01]	7.5
COc1ccc(N(CC(=O)NCc2ccccc2)C(=O)CCC(=O)Nc2cc(C)ccn2)c(OC)c1 [MLS000121471-01]	10.6
CCCC(O)(c1ccc(Cl)cc1)C(CN1CCOCC1)c1ccc(Cl)cc1 (stereo not shown) [MLS001200366-01]	4.73
CCc1nn2cc(C(=O)c3cc(C)ccc3O)cnc2c1-c1ccc(F)cc1 [MLS000548735-01]	9.44
Cc1nn(-c2ccccc2)c2c1C(c1cccnc1)N1C=C(S(=O)(=O)N3CCCCC3)C=CC1=N2 (stereo not shown) [MLS000863363-01]	15
CC(C)(C)c1ccc(C(=O)Nc2ccc(C(O)[C@H]3COCC(=O)N3Cc3ccccn3)cc2)cc1 (stereo partly shown) [NCGC00392498-01]	5.31
O=C(Nc1ccncc1)c1cc(-c2cccc(Br)c2)nc2ccccc12 [MLS001159350-01]	13.3
COc1cccc(/C(C#N)=C/c2c(-c3ccc(Cl)cc3)nc3c(C)cccn23)c1 [MLS000326878-01]	5.96
COc1ccc(CC(=O)N2Cc3ccccc3CC3(CCCN3C)C2)cc1 (stereo not shown) [NCGC00377108-01]	9.44
Cn1c(SCC(=O)N2c3ccccc3CCc3ccccc32)nnc1-c1cc2ccccc2cc1O [MLS000553503-01]	8.41
c1ccc(Oc2ccc(Nc3cnc4ccc(N5CCOCC5)nn34)cc2)cc1 [NCGC00412601-01]	7.69
Cc1noc(C)c1-c1cc2c(cc(C)n2CCN(C)C)c(-c2cccc(O)c2)n1 [NCGC00417178-01]	17.2
CC(=O)Nc1cc(-c2cc(C(=O)NCCc3c[nH]cn3)c3c(c2)N(C)CCO3)ccn1 [NCGC00417032-01]	13.7
